Reference: the supplement of paper PMC10307832

How the values were obtained:
Assay in all cases: relative viability (nuclei count vs DMSO), 5 days (fraction); higher = more cells survive
Dinaciclib + Trametinib = compound: CCc1cnn2c(NCc3ccc[n+]([O-])c3)cc(N3CCCC[C@H]3CCO)nc12 [Dinaciclib] + CC(=O)Nc1cccc(-n2c(=O)n(C3CC3)c(=O)c3c(Nc4ccc(I)cc4F)n(C)c(=O)c(C)c32)c1 [Trametinib] (partner 0.02 µM)
Summary of the method: (§1)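 Lung cancer cell lines, seeded in 1536-well plates, were treated the following day by pin tool with a single drug or with five library-drug doses (not always all listed) in √10 steps on top of a fixed anchor-drug dose. Cells were fixed and nuclei stained in one step after 5 days, and nuclei were counted. Relative viability is the nuclei count for treated wells divided by that for vehicle wells, reported as medians of duplicate plates.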

Dinaciclib + Navitoclax = compound: CCc1cnn2c(NCc3ccc[n+]([O-])c3)cc(N3CCCC[C@H]3CCO)nc12 [Dinaciclib] + CC1(C)CCC(c2ccc(Cl)cc2)=C(CN2CCN(c3ccc(C(=O)NS(=O)(=O)c4ccc(N[C@H](CCN5CCOCC5)CSc5ccccc5)c(S(=O)(=O)C(F)(F)F)c4)cc3)CC2)C1 [Navitoclax] (partner 0.5 µM)
Summary of the method: as §1

Dinaciclib + OSI-027 = compound: CCc1cnn2c(NCc3ccc[n+]([O-])c3)cc(N3CCCC[C@H]3CCO)nc12 [Dinaciclib] + COc1cccc2cc(-c3nc([C@H]4CC[C@H](C(=O)O)CC4)n4ncnc(N)c34)[nH]c12 [OSI-027] (partner 0.5 µM)
Summary of the method: as §1

Dinaciclib + Tozasertib = compound: CCc1cnn2c(NCc3ccc[n+]([O-])c3)cc(N3CCCC[C@H]3CCO)nc12 [Dinaciclib] + Cc1cc(Nc2cc(N3CCN(C)CC3)nc(Sc3ccc(NC(=O)C4CC4)cc3)n2)n[nH]1 [Tozasertib] (partner 0.1 µM)
Summary of the method: as §1

Dinaciclib + Olaparib = compound: CCc1cnn2c(NCc3ccc[n+]([O-])c3)cc(N3CCCC[C@H]3CCO)nc12 [Dinaciclib] + O=C(c1cc(Cc2n[nH]c(=O)c3ccccc23)ccc1F)N1CCN(C(=O)C2CC2)CC1 [Olaparib] (partner 8 µM)
Summary of the method: as §1

| Cell Line | relative viability (Dinaciclib + Trametinib; first compound 0.009487 µM) | relative viability (Dinaciclib + Trametinib; first compound 0.03 µM) | relative viability (Dinaciclib + Trametinib; first compound 0.09487 µM) | relative viability (Dinaciclib + Trametinib; first compound 0.3 µM) | relative viability (Dinaciclib + Navitoclax; first compound 0.009487 µM) | relative viability (Dinaciclib + Navitoclax; first compound 0.03 µM) | relative viability (Dinaciclib + Navitoclax; first compound 0.09487 µM) | relative viability (Dinaciclib + Navitoclax; first compound 0.3 µM) | relative viability (Dinaciclib + OSI-027; first compound 0.009487 µM) | relative viability (Dinaciclib + OSI-027; first compound 0.03 µM) | relative viability (Dinaciclib + OSI-027; first compound 0.09487 µM) | relative viability (Dinaciclib + OSI-027; first compound 0.3 µM) | relative viability (Dinaciclib + Tozasertib; first compound 0.009487 µM) | relative viability (Dinaciclib + Tozasertib; first compound 0.03 µM) | relative viability (Dinaciclib + Tozasertib; first compound 0.09487 µM) | relative viability (Dinaciclib + Tozasertib; first compound 0.3 µM) | relative viability (Dinaciclib + Olaparib; first compound 0.009487 µM) | relative viability (Dinaciclib + Olaparib; first compound 0.03 µM) | relative viability (Dinaciclib + Olaparib; first compound 0.09487 µM) | relative viability (Dinaciclib + Olaparib; first compound 0.3 µM) |
| --- | --- | --- | --- | --- | --- | --- | --- | --- | --- | --- | --- | --- | --- | --- | --- | --- | --- | --- | --- | --- |
| LXF-289 | 0.682 | 0.307 | 0.0823 | 0.103 | 0.921 | 0.189 | 0.0659 | 0.0645 | 0.948 | 0.4 | 0.0693 | 0.0617 | 0.183 | 0.149 | 0.0561 | 0.0572 | 1.01 | 0.103 | 0.0785 | 0.0985 |
| NCI-H23 | 0.305 | 0.164 | 0.13 | 0.122 | 0.74 | 0.173 | 0.113 | 0.12 | 0.714 | 0.227 | 0.132 | 0.1 | 0.246 | 0.131 | 0.116 | 0.13 | 0.206 | 0.12 | 0.0827 | 0.101 |
| NCI-H322M | 0.623 | 0.36 | 0.341 | 0.391 | 1.27 | 1.2 | 0.587 | 0.205 | 0.419 | 0.286 | 0.323 | 0.285 | 0.417 | 0.263 | 0.303 | 0.259 | 0.652 | 0.304 | 0.328 | 0.321 |
| NCI-H441 | 0.42 | 0.156 | 0.137 | 0.114 | 0.655 | 0.11 | 0.135 | 0.128 | 0.519 | 0.185 | 0.202 | 0.153 | 0.603 | 0.223 | 0.23 | 0.175 | 0.432 | 0.141 | 0.125 | 0.127 |
| NCI-H460 | 0.0986 | 0.0124 | 0.0166 | 0.0082 | 1.05 | 0.0119 | 0.0108 | 0.0098 | 0.392 | 0.0364 | 0.0185 | 0.0206 | 0.489 | 0.0458 | 0.015 | 0.0209 | 0.409 | 0.0325 | 0.0396 | 0.0408 |
| NCI-H520 | 0.506 | 0.104 | 0.0836 | 0.104 | 0.69 | 0.12 | 0.12 | 0.117 | 0.277 | 0.179 | 0.19 | 0.156 | 0.473 | 0.201 | 0.181 | 0.208 | 0.259 | 0.117 | 0.101 | 0.114 |
| NCI-H596 | 0.711 | 0.692 | 0.19 | 0.19 | 0.872 | 0.276 | 0.0498 | 0.09 | 0.787 | 0.665 | 0.392 | 0.153 | 0.853 | 0.456 | 0.176 | 0.164 | 0.699 | 0.522 | 0.222 | 0.202 |
| NCI-H647 | 0.379 | 0.192 | 0.0855 | 0.0533 | 0.764 | 0.0454 | 0.0549 | 0.0648 | 0.499 | 0.206 | 0.0824 | 0.0778 | 0.21 | 0.0983 | 0.0486 | 0.0487 | 0.258 | 0.0359 | 0.0547 | 0.051 |
| NCI-H727 | 0.39 | 0.324 | 0.324 | 0.392 | 0.37 | 0.0912 | 0.0827 | 0.0949 | 0.468 | 0.317 | 0.285 | 0.326 | 0.538 | 0.287 | 0.276 | 0.282 | 0.782 | 0.314 | 0.351 | 0.328 |
| NCI-H838 | 0.315 | 0.127 | 0.0741 | 0.0706 | 0.901 | 0.226 | 0.13 | 0.118 | 0.436 | 0.219 | 0.0977 | 0.0933 | 0.292 | 0.164 | 0.0965 | 0.0959 | 0.431 | 0.101 | 0.0853 | 0.0924 |
| NCI-H1355 | 0.457 | 0.349 | 0.173 | 0.14 | 0.943 | 0.159 | 0.123 | 0.0999 | 0.435 | 0.212 | 0.159 | 0.151 | 0.677 | 0.292 | 0.161 | 0.181 | 0.755 | 0.487 | 0.133 | 0.141 |
| NCI-H1395 | 1.11 | 0.315 | 0.281 | 0.289 | 1.06 | 0.263 | 0.299 | 0.267 | 0.631 | 0.311 | 0.251 | 0.215 | 0.782 | 0.301 | 0.24 | 0.239 | 0.469 | 0.279 | 0.264 | 0.32 |
| NCI-H1437 | 0.403 | 0.212 | 0.134 | 0.135 | 0.972 | 0.108 | 0.106 | 0.0962 | 1 | 0.506 | 0.132 | 0.132 | 0.356 | 0.165 | 0.141 | 0.131 | 0.418 | 0.159 | 0.138 | 0.158 |
| NCI-H1650 | 0.516 | 0.163 | 0.151 | 0.119 | 1.17 | 0.144 | 0.0928 | 0.139 | 0.426 | 0.15 | 0.136 | 0.123 | 0.363 | 0.176 | 0.119 | 0.147 | 0.861 | 0.431 | 0.127 | 0.0993 |
| NCI-H1651 | 0.785 | 0.668 | 0.173 | 0.072 | 0.745 | 0.289 | 0.0312 | 0.0396 | 0.694 | 0.53 | 0.163 | 0.0729 | 0.633 | 0.58 | 0.0798 | 0.0626 | 0.215 | 0.202 | 0.106 | 0.059 |
